Assay results from BindingDB's records for doi:10.1016/j.ejmech.2016.12.029 (University of Auckland, 2017).

Experiment: Inhibition of recombinant human IDO1 expressed in yeast assessed as yeast growth restoration after 40 to 45 hrs in presence of galactose

- EC50: 2 µM
Compound: CN1CCN(C(CO)Cc2ccccc2)CC1 (stereo unspecified)
